In US5807535A, “Metal complexes of hydroxyaryl containing aminocarboxylic acid chelating agents” (Australian Nuclear Science & Technology Organisation, priority 1992, dated 1998):
One block for each compound: values may come before it.

Columns and labels:
[1] = Biodistribution of 67Ga complexes in mice; format: in vivo, balb/c mice
Method: To ligand (50 μL, 10 mg/mL, 0.2 M NaOAc, […]) was added ^67 Ga citrate (18.5 MBq) and the resultant mixture diluted to 1 mL (0.2 M NaOAc, pH 7). The pH was adjusted to 12 with 1 M NaOH (20 μL) and heated at 40° C. for 40 min. The final volume was adjusted (to 5 mL) with saline and sterilised by filtering through a 0.22 μm filter.
Each animal was injected via tail vein with ^67 Ga complex (100 μL, ~3.7×10^5 Bq). Animals were sacrificed at various time intervals (5 animals per time point/6 time points). Data are illustrated in FIG. 26-30 and in Tables 13-17.
Each ^67 Ga-ligand complex has been evaluated in balb/c mice. […] (see FIG. 26-30).

[2] = Effect of pH on complexation of 99mTc with ligand (5); format: physicochemical
Method: Radiolabelling with ^99m Tc was investigated over a range of pHs (3.0-10.0) (described in Table B). To ligand (5) (1.0 ml:1 mg/ml) dissolved in appropriate buffer was added an excess of stannous chloride (20 μl:2 mg/ml) in 0.1 N HCl. To this mixture is added an appropriate activity of ^99m TcO4 (20 μl) eluted from a technetium generator.
All reactions were carried out at room temperature.
Percent complexation was monitored by ITLC-SG using two solvent systems. […]

biodistribution bone ([1]; 1 min): 5.07 % ID
biodistribution kidney ([1]; 1 min): 9.28 % ID
biodistribution liver ([1]; 1 min): 15.45 % ID
biodistribution muscle ([1]; 1 min): 22.75 % ID
biodistribution skin ([1]; 1 min): 11.72 % ID
biodistribution spleen ([1]; 1 min): 0.29 % ID
biodistribution bone ([1]; 3 min): 3.30 % ID
biodistribution kidney ([1]; 3 min): 5.26 % ID
biodistribution liver ([1]; 3 min): 24.21 % ID
biodistribution muscle ([1]; 3 min): 12.70 % ID
biodistribution skin ([1]; 3 min): 13.76 % ID
biodistribution spleen ([1]; 3 min): 0.14 % ID
biodistribution bone ([1]; 5 min): 2.83 % ID
biodistribution kidney ([1]; 5 min): 4.37 % ID
biodistribution liver ([1]; 5 min): 25.79 % ID
biodistribution muscle ([1]; 5 min): 12.14 % ID
biodistribution skin ([1]; 5 min): 13.02 % ID
biodistribution spleen ([1]; 5 min): 0.1 % ID
biodistribution bone ([1]; 10 min): 2.20 % ID
biodistribution kidney ([1]; 10 min): 1.91 % ID
biodistribution liver ([1]; 10 min): 22.77 % ID
biodistribution muscle ([1]; 10 min): 26.13 % ID
biodistribution skin ([1]; 10 min): 8.47 % ID
biodistribution spleen ([1]; 10 min): 0.06 % ID
biodistribution bone ([1]; 30 min): 0.50 % ID
biodistribution kidney ([1]; 30 min): 0.57 % ID
biodistribution liver ([1]; 30 min): 10.11 % ID
biodistribution muscle ([1]; 30 min): 1.80 % ID
biodistribution skin ([1]; 30 min): 1.56 % ID
biodistribution spleen ([1]; 30 min): 0.01 % ID
biodistribution kidney ([1]; 120 min): 0.05 % ID
biodistribution liver ([1]; 120 min): 0.88 % ID
biodistribution muscle ([1]; 120 min): 0.48 % ID
biodistribution skin ([1]; 120 min): 0.24 % ID
biodistribution spleen ([1]; 120 min): 0.01 % ID
SMILES: O=C(O)CN(CCN(CC(=O)O)CC(=O)Nc1ccccc1O)CC(=O)Nc1ccccc1O [Compound 1]

biodistribution bone ([1]; 1 min): 6.16 % ID
biodistribution kidney ([1]; 1 min): 9.54 % ID
biodistribution liver ([1]; 1 min): 24.9 % ID
biodistribution lungs ([1]; 1 min): 1.79 % ID
biodistribution muscle ([1]; 1 min): 20.55 % ID
biodistribution skin ([1]; 1 min): 11.55 % ID
biodistribution spleen ([1]; 1 min): 0.29 % ID
biodistribution bone ([1]; 3 min): 2.82 % ID
biodistribution kidney ([1]; 3 min): 4.62 % ID
biodistribution liver ([1]; 3 min): 35.52 % ID
biodistribution lungs ([1]; 3 min): 0.56 % ID
biodistribution muscle ([1]; 3 min): 8.63 % ID
biodistribution skin ([1]; 3 min): 9.27 % ID
biodistribution spleen ([1]; 3 min): 0.1 % ID
biodistribution bone ([1]; 5 min): 2.13 % ID
biodistribution kidney ([1]; 5 min): 3.52 % ID
biodistribution liver ([1]; 5 min): 33.09 % ID
biodistribution lungs ([1]; 5 min): 0.41 % ID
biodistribution muscle ([1]; 5 min): 5.50 % ID
biodistribution skin ([1]; 5 min): 8.04 % ID
biodistribution spleen ([1]; 5 min): 0.07 % ID
biodistribution bone ([1]; 10 min): 0.74 % ID
biodistribution kidney ([1]; 10 min): 1.00 % ID
biodistribution liver ([1]; 10 min): 23.34 % ID
biodistribution lungs ([1]; 10 min): 0.12 % ID
biodistribution muscle ([1]; 10 min): 2.00 % ID
biodistribution skin ([1]; 10 min): 3.80 % ID
biodistribution spleen ([1]; 10 min): 0.02 % ID
biodistribution bone ([1]; 30 min): 0.50 % ID
biodistribution kidney ([1]; 30 min): 0.21 % ID
biodistribution liver ([1]; 30 min): 3.7 % ID
biodistribution muscle ([1]; 30 min): 2.00 % ID
biodistribution skin ([1]; 30 min): 0.88 % ID
biodistribution spleen ([1]; 30 min): 0.02 % ID
biodistribution bone ([1]; 120 min): 0.38 % ID
biodistribution kidney ([1]; 120 min): 0.01 % ID
biodistribution liver ([1]; 120 min): 0.92 % ID
biodistribution muscle ([1]; 120 min): 0.31 % ID
biodistribution skin ([1]; 120 min): 0.17 % ID
biodistribution spleen ([1]; 120 min): 0 % ID
SMILES: O=C(O)CN(CCN(CC(=O)O)CC(=O)Nc1ccc(Cl)cc1O)CC(=O)Nc1ccc(Cl)cc1O [Compound 2]

SMILES: CC(C)(C)c1ccc(O)c(NC(=O)CN(CCN(CC(=O)O)CC(=O)Nc2cc(C(C)(C)C)ccc2O)CC(=O)O)c1 [Compound 4]
biodistribution bone ([1]; 1 min): 3.20 % ID
biodistribution kidney ([1]; 1 min): 6.91 % ID
biodistribution liver ([1]; 1 min): 39.06 % ID
biodistribution muscle ([1]; 1 min): 11.34 % ID
biodistribution skin ([1]; 1 min): 11.94 % ID
biodistribution spleen ([1]; 1 min): 0.15 % ID
biodistribution bone ([1]; 3 min): 1.31 % ID
biodistribution kidney ([1]; 3 min): 2.12 % ID
biodistribution liver ([1]; 3 min): 43.23 % ID
biodistribution muscle ([1]; 3 min): 5.08 % ID
biodistribution skin ([1]; 3 min): 8.12 % ID
biodistribution spleen ([1]; 3 min): 0.04 % ID
biodistribution bone ([1]; 5 min): 0.98 % ID
biodistribution kidney ([1]; 5 min): 1.59 % ID
biodistribution liver ([1]; 5 min): 39.61 % ID
biodistribution muscle ([1]; 5 min): 4.29 % ID
biodistribution skin ([1]; 5 min): 8.22 % ID
biodistribution spleen ([1]; 5 min): 0.03 % ID
biodistribution bone ([1]; 10 min): 0.20 % ID
biodistribution kidney ([1]; 10 min): 0.43 % ID
biodistribution liver ([1]; 10 min): 8.29 % ID
biodistribution muscle ([1]; 10 min): 0.65 % ID
biodistribution skin ([1]; 10 min): 2.92 % ID
biodistribution spleen ([1]; 10 min): 0.00 % ID
biodistribution bone ([1]; 30 min): 0.13 % ID
biodistribution kidney ([1]; 30 min): 0.17 % ID
biodistribution liver ([1]; 30 min): 1.06 % ID
biodistribution muscle ([1]; 30 min): 0.32 % ID
biodistribution skin ([1]; 30 min): 0.18 % ID
biodistribution spleen ([1]; 30 min): 0.00 % ID
biodistribution kidney ([1]; 120 min): 0.07 % ID
biodistribution liver ([1]; 120 min): 0.29 % ID
biodistribution muscle ([1]; 120 min): 0.21 % ID
biodistribution skin ([1]; 120 min): 0.15 % ID
biodistribution spleen ([1]; 120 min): 0.01 % ID

biodistribution urine ([1]; 1 min): 6.30 % ID
biodistribution urine ([1]; 3 min): 8.94 % ID
biodistribution urine ([1]; 5 min): 15.34 % ID
biodistribution urine ([1]; 10 min): 14.23 % ID
biodistribution urine ([1]; 30 min): 7.76 % ID
biodistribution urine ([1]; 120 min): 3.55 % ID
complexation ([2]; 99mTc, pH 10.0): poor
stability of product ([2]; 99mTc, pH 10.0): unstable
stability of final product (stable for upto) ([2]; 99mTc, pH range 3.0-9.0): ≤ 2 h
optimum pH of complexation ([2]; 99mTc, room temperature): 3.0-4.0 pH
Percent 99mTc complexed ([2]; pH 3, 1 min): 89%
Percent 99mTc complexed ([2]; pH 3, 3 min): 93%
Percent 99mTc complexed ([2]; pH 3, 5 min): 90%
Percent 99mTc complexed ([2]; pH 3, 10 min): 91%
Percent 99mTc complexed ([2]; pH 3, 15 min): 90%
Percent 99mTc complexed ([2]; pH 3, 30 min): 92%
Percent 99mTc complexed ([2]; pH 3, 1 h): 92%
Percent 99mTc complexed ([2]; pH 3, 2 h): 94%
Percent 99mTc complexed ([2]; pH 4, 1 min): 94%
Percent 99mTc complexed ([2]; pH 4, 3 min): 97%
Percent 99mTc complexed ([2]; pH 4, 5 min): 92%
Percent 99mTc complexed ([2]; pH 4, 10 min): 94%
Percent 99mTc complexed ([2]; pH 4, 15 min): 96%
Percent 99mTc complexed ([2]; pH 4, 30 min): 91%
Percent 99mTc complexed ([2]; pH 4, 1 h): 100%
Percent 99mTc complexed ([2]; pH 4, 2 h): 100%
Percent 99mTc complexed ([2]; pH 5, 1 min): 84%
Percent 99mTc complexed ([2]; pH 5, 3 min): 83%
Percent 99mTc complexed ([2]; pH 5, 5 min): 91%
Percent 99mTc complexed ([2]; pH 5, 10 min): 83%
Percent 99mTc complexed ([2]; pH 5, 15 min): 81%
Percent 99mTc complexed ([2]; pH 5, 30 min): 71%
Percent 99mTc complexed ([2]; pH 5, 1 h): 85%
Percent 99mTc complexed ([2]; pH 5, 2 h): 88%
Percent 99mTc complexed ([2]; pH 6, 1 min): 80%
Percent 99mTc complexed ([2]; pH 6, 3 min): 80%
Percent 99mTc complexed ([2]; pH 6, 5 min): 83%
Percent 99mTc complexed ([2]; pH 6, 10 min): 80%
Percent 99mTc complexed ([2]; pH 6, 15 min): 82%
Percent 99mTc complexed ([2]; pH 6, 30 min): 90%
Percent 99mTc complexed ([2]; pH 6, 1 h): 85%
Percent 99mTc complexed ([2]; pH 6, 2 h): 91%
Percent 99mTc complexed ([2]; pH 7, 1 min): 73%
Percent 99mTc complexed ([2]; pH 7, 3 min): 83%
Percent 99mTc complexed ([2]; pH 7, 5 min): 81%
Percent 99mTc complexed ([2]; pH 7, 10 min): 74%
Percent 99mTc complexed ([2]; pH 7, 15 min): 87%
Percent 99mTc complexed ([2]; pH 7, 30 min): 80%
Percent 99mTc complexed ([2]; pH 7, 1 h): 83%
Percent 99mTc complexed ([2]; pH 7, 2 h): 52%
Percent 99mTc complexed ([2]; pH 8, 1 min): 76%
Percent 99mTc complexed ([2]; pH 8, 3 min): 88%
Percent 99mTc complexed ([2]; pH 8, 5 min): 81%
Percent 99mTc complexed ([2]; pH 8, 10 min): 83%
Percent 99mTc complexed ([2]; pH 8, 15 min): 87%
Percent 99mTc complexed ([2]; pH 8, 30 min): 85%
Percent 99mTc complexed ([2]; pH 8, 1 h): 77%
Percent 99mTc complexed ([2]; pH 8, 2 h): 81%
Percent 99mTc complexed ([2]; pH 9, 1 min): 90%
Percent 99mTc complexed ([2]; pH 9, 3 min): 100%
Percent 99mTc complexed ([2]; pH 9, 5 min): 94%
Percent 99mTc complexed ([2]; pH 9, 10 min): 86%
Percent 99mTc complexed ([2]; pH 9, 15 min): 100%
Percent 99mTc complexed ([2]; pH 9, 30 min): 83%
Percent 99mTc complexed ([2]; pH 9, 1 h): 85%
Percent 99mTc complexed ([2]; pH 9, 2 h): 74%
Percent 99mTc complexed ([2]; pH 10, 1 min): 15%
Percent 99mTc complexed ([2]; pH 10, 3 min): 16%
Percent 99mTc complexed ([2]; pH 10, 5 min): 11%
Percent 99mTc complexed ([2]; pH 10, 10 min): 13%
Percent 99mTc complexed ([2]; pH 10, 15 min): 9%
Percent 99mTc complexed ([2]; pH 10, 1 h): 8%
Percent 99mTc complexed ([2]; pH 10, 2 h): 8%
SMILES: Nc1ccc(O)c(NC(=O)CN(CCN(CC(=O)O)CC(=O)Nc2cc(N)ccc2O)CC(=O)O)c1 [Compound 5]
